In US7371813B2, “Method for use of IGF-binding protein for selective sensitization of target cells in vivo” (Bioexpertise LLC, priority 2000, dated 2008):
Marks after values point to notes of the source that are not given here.

Assays:
[1] = tested on: 16C mammary adenocarcinoma; assay: 16C mammary adenocarcinoma SC tumor implants in C3H mice, tumor growth; format: in vivo; settings: for Days Delay in tumor growth: endpoint of 1500 mg tumor weight, 16C tumors, C3H mice
Description: Female C3H mice (8-11 animals per group) received early SC implants of 16C mammary adenocarcinoma tumor fragments (near 100% “take”) and were treated with vehicle, [N109D]-IGFBP-3 (4 mg/kg/day SC ×21), 5-FU (10 mg/kg/day IP ×5), adriamycin (2 mg/kg/dose IV on day 1 and day 8 post-implant), or the indicated combinations. Tumors were measured twice weekly. Animals were sacrificed at Day 21. The doses of doxorubicin and 5-fluorouracil used in this experiment were chosen to be marginally effective, based on previous experience with these chemical agents in this model. […] The results are shown graphically in FIG. 2.

MDA-MB-231 tumors = assay: MDA-MB-231 mammary tumors implanted SC in nude mice, tumor growth; format: in vivo; settings: for Days Delay in tumor growth: endpoint of 3× doubling of tumor weight; for Days Delay in tumor growth / Median tumor volume, day 15: MDA-MB-231, nude mice; for Tumor growth, difference from control: statistical comparison with the control group; for Median tumor volume, day 15: Day 15 post-implant (treatment start); for Median tumor volume, day 19: Day 19 post-implant; for Median tumor volume, day 22: Day 22 post-implant; for Median tumor volume, day 26: Day 26 post-implant; for Median tumor volume, day 29: Day 29 post-implant; for Median tumor volume, day 33: Day 33 post-implant
Description: MDA-MB-231 tumors were implanted in nude mice. Ten animals (NCr-nu) were allocated to each group. The tumors were implanted SC as trocar fragments and allowed to increase in size to approximately 170 mg before treatment began on Day 15 post-implant. The treatment regimen for [N109D]-IGFBP-3 was 4.0 mg/kg/dose, daily for 21 days, SC beginning on Day 15. The treatment regimen for Taxol was 5.0 mg/kg/day, daily for five days, IV. The treatment regimen for Cisplatin was 4.0 mg/kg/dose, administered every fourth day for three treatments, IP. Treatment regimens for TAXOL® and Cisplatin began on Day 18. Tumor measurements were performed daily.

RXR-alpha = RXR-alpha levels in 16C tumor tissue (gene array); format: in vivo, mouse; settings: 16C tumors from treated animals
Description: (§1) In order to gain further insights into the mechanism of action of exogenously added IGFBP-3 in these mouse models, tumor tissues from the groups treated with vehicle, doxorubicin, or doxorubicin plus IGFBP-3, were further analyzed using gene array technology. RNA was extracted from tumor tissue. cDNA was prepared, labelled and used to probe Atlas 1.2k-I mouse gene arrays (Clontech Laboratories Inc., Palo Alto, Calif.). These arrays contain 1,176 mouse gene sequences.

[2] = tested on: 1,176 mouse gene sequences; assay: Gene array analysis (Atlas 1.2k-I mouse gene arrays) of 16C tumor tissue; format: in vivo
Description: as §1

tumor growth = assay: Systemic IGFBP-3 alone in animal models of cancer, tumor growth; format: in vivo; settings: 4 mg/kg for 21 days, more than one animal model of cancer
Description: This was surprising because it was believed that IGFBP-3 alone could cause the death of some tumor cells. The dose chosen is likely to be close to the maximum practicable dose that would be systemically delivered in a human clinical setting. The maximum practicable dose is determined by the cost, pharmacokinetics, toxicology, solubility of the formulation, route of administration, and other practical considerations.

Molecule	Days Delay in tumor growth [1]	Days Delay in tumor growth (MDA-MB-231 tumors)	Tumor growth, difference from control (MDA-MB-231 tumors)	Median tumor volume, day 15 (MDA-MB-231 tumors) [milligrams]	Median tumor volume, day 19 (MDA-MB-231 tumors) [milligrams]	Median tumor volume, day 22 (MDA-MB-231 tumors) [milligrams]	Median tumor volume, day 26 (MDA-MB-231 tumors) [milligrams]	Median tumor volume, day 29 (MDA-MB-231 tumors) [milligrams]	Median tumor volume, day 33 (MDA-MB-231 tumors) [milligrams]	further results
[N109D]-IGFBP-3: derivative of IGFBP-3 that has an amino acid sequence alteration at position 109 of the mature sequence	-0.2 days	-2.2 days	not significantly different from control							Effect on tumor growth on its own ([1]; 4 mg/kg/day SC ×21): no measurable effects; Potentiation of the effects of co-administered doxorubicin and 5-fluorouracil ([1]; 4 mg/kg/day SC ×21 with marginally effective doses of the agents): significantly (p<0.01) potentiated the effects of both agents
O=c1[nH]cc(F)c(=O)[nH]1 [5-FLUOROURACIL, 5-fluorouracil]	+1.9 days									
COc1cccc2c1C(=O)c1c(O)c3c(c(O)c1C2=O)C[C@@](O)(C(=O)CO)C[C@@H]3O[C@H]1C[C@H](N)[C@H](O)[C@H](C)O1 [ADRIAMYCIN ®, doxorubicin]	+2.5* days									Inhibition of RXR-alpha levels in tumors (RXR-alpha): not; Number of down-regulated genes ([2]; among the differentially expressed genes): 16 genes; Number of differentially expressed genes ([2]; of 1,176 gene sequences): 26 genes; Share of genes differentially expressed ([2]; of 1,176 gene sequences): 2%
IGFBP-3: insulin-like growth factor binding protein 3; in Table 2 the group received [N109D]-IGFBP-3				161 ± 35	367.5 ± 244	565 ± 510	818.5 ± 750	1089 ± 851	1936 ± 1825	Slowing of tumor growth by IGFBP-3 alone (tumor growth): completely ineffective
N.N.[Cl][Pt][Cl] [CISPLATIN, cisplatin]			significantly different from control	171 ± 33	368 ± 124	446 ± 175	563 ± 214	675 ± 220	922 ± 299	
CC(=O)O[C@H]1C(=O)[C@@]2(C)[C@H]([C@H](OC(=O)c3ccccc3)[C@]3(O)C[C@H](OC(=O)[C@H](O)[C@@H](NC(=O)c4ccccc4)c4ccccc4)C(C)=C1C3(C)C)[C@]1(OC(C)=O)CO[C@@H]1C[C@@H]2O [TAXOL ®, paclitaxel]		+3.5 days	significantly different from control	153 ± 32	327 ± 131	384 ± 337	512 ± 489	648 ± 538	900 ± 1067	
